These results are taken from patent US10774046B2, “Inhibitors for the treatment of cancer and related methods” (UNIVERSITY OF LOUISVILLE RESEARCH FOUNDATION, INC., priority 2017, dated 2020).

The subject of one series is cancer cells. Nature of the series: intracellular ATP measurement. The series is classed as cell-based. Conditions: increasing concentrations. On the procedure: Method: To measure ATP, cells were washed (while still adherent) with cold PBS, lysed with Passive Lysis Buffer (Molecular Probes, Invitrogen) added directly to the plates, and immediately harvested by scraping. The lysates were flash frozen (to −80° C.) and thawed (to 37° C.) once to accomplish complete lysis and then centrifuged to clear the lysates. Intracellular ATP levels were determined using a bioluminescence assay (Molecular Probes), utilizing luciferase and its substrate, D-luciferin and ATP values were calculated using an ATP standard curve. The ATP concentration was normalized to protein concentration that was estimated using the BCA assay.

Series [1] has as its system normal human bronchial epithelial (NHBE) cells. Kind of series: cell growth of normal cells, live cell count. In kind it is cell-based. Conditions: live cells at 48 hours. The source says: H460, H1299, H441, H522 and A549 non-small cell lung cancer (NSCLC), MDA-MB-231 (breast), LNCaP (prostatic) and HCT116 (colon) adenocarcinoma and Lewis lung carcinoma (LLC) cell lines were obtained from ATCC and used within 6 months of acquisition. PFKFB4^−/− ear pinna fibroblasts isolated from TamCre/loxP/PFKFB4^−/− mice were immortalized as described previously (Chesney J et al. Fructose-2,6-bisphosphate synthesis by 6-phosphofructo-2-kinase/fructose-2,6-bisphosphatase 4 (PFKFB4) is required for the glycolytic response to hypoxia and tumor growth. Oncotarget 2014 Aug. 30; 5(16):6670-86). Normal bronchial epithelial cells (NHBE) were obtained from Lonza and NHBE cells expressing telomerase, SV40 large T antigen and activated Ras (hT/LT/Ras) were a gift from Dr. B. J. Rollins, Dana Farber Cancer Institute. All cell lines were tested and found negative for mycoplasma (PCR Mycoplasma Detection Kit, ABM). Cell lines were grown in DMEM (A549, LNCaP, MDA-MB-231, LLC and PFKFB4^−/−), RPMI 1640 (H460, H1299, H441, H522) and McCoy's 5A media (HCT116) (all from Invitrogen) containing 10% fetal calf serum (Hyclone). […]
Cells were incubated in 20% trypan blue (Sigma) for 5 minutes. Cells excluding trypan blue were counted using a standard hemocytometer (Hausser Scientific) to determine total numbers of viable cells. Data are expressed as mean±SD of three experiments.

Series [2] relates to H460 cells. Nature of the series: cell cycle analysis by flow cytometry. The series is classed as cell-based, human. On the procedure: (§1) To measure apoptosis, cells were stained with annexin V and propidium iodide and examined as previously described. For example, H460 cells were exposed to increasing concentrations of the PFKFB4 inhibitor (MPN-2), the PFKFB3 inhibitor PFK15 (Tocris) or both and viable cells were counted at 24, 48 and 72 hours. DMSO used as vehicle. For cell cycle experiments, cells were detached, washed with cold PBS and fixed in 70% ethanol (4° C., 30 minutes). The cells then were pelleted by centrifugation, resuspended in PBS containing PI and RNase A, incubated at 37° C. in the dark for 30 minutes and analyzed by flow cytometry (BD FACSCalibur). Data were analyzed using FlowJo software (TREE STAR Inc.). Results were calculated as the mean±SD of three experiments. The effects (Fa values) of the series of concentrations of MPN-2 and PFK-15 were examined individually and in combination at a constant ratio of 1:1.

In a further series the test system is LLC xenografts. Nature of the series: intratumoral F2,6BP. In kind it is in vivo, C57BL/6 mice. The following applies: 120 mg/kg by gavage daily, 10 days. How it is done: Cells or tissues were prepared as previously described and F2,6BP content measured using a coupled enzyme reaction following a modification of the method of Van Schaftingen et al (VAN SCHAFTINGEN E et al. “A kinetic study of pyrophosphate:fructose-6-phosphate phosphotransferase from potato tubers. Application to a microassay of fructose 2,6-bisphosphate” Eur J Biochem (1982) Vol. 129, No. 1, pp. 191-195) and normalized to total cellular protein measured by the bicinchoninic acid assay (BCA, Thermo Scientific). For example, H460 cells were exposed to the indicated concentrations of MPN-2. In order to measure F2,6BP, cells were harvested, washed with PBS, lysed in NaOH/Tris acetate by heating at 80° C. and lysates neutralized to pH 7.2. F2,6BP content was measured using a coupled enzyme reaction following a modified method of Van Schaftingen et al (VAN SCHAFTINGEN E et al. “A kinetic study of pyrophosphate:fructose-6-phosphate phosphotransferase from potato tubers. Application to a microassay of fructose 2,6-bisphosphate” Eur J Biochem (1982) Vol. 129, No. 1, pp. 191-195). The F2,6BP concentration was normalized to total cellular protein measured by the bicinchoninic acid assay (BCA, Thermo Scientific). All data are expressed as the mean±SD of three experiments. Statistical significance was assessed by the two-sample t test (independent variable). […]

Another series concerns PFK-1. Kind of series: PFK-1 kinase activity. The series is classed as biochemical. The following applies: 10 μM.
Series [3] relates to H460 cells. Nature of the series: apoptosis by flow cytometry (annexin V / propidium iodide). The series is classed as cell-based, human. Conditions: H460, 10 μM 5MPN. How it is done: as §1
The next series concerns LLC cells. Nature of the series: cell cycle analysis by flow cytometry. In kind it is cell-based, mouse. The following applies: LLC cells in vitro, 10 μM 5MPN. On the procedure:
as §1
A general note: Flow cytometry measures light scatter and fluorescence of single cells or particles in a stream.

The next series has as its target PFKFB3 (Homo sapiens, UniProt Q16875). Kind of series: PFKFB3 kinase activity. In kind it is biochemical. Conditions: 10 μM.
Series [4] has as its system H460 human lung adenocarcinoma xenografts. Kind of series: H460 xenograft growth in athymic mice. The series is classed as in vivo, BALB/c athymic mice.

PFKFB3, sequence (Q16875 whole entry, species assumed): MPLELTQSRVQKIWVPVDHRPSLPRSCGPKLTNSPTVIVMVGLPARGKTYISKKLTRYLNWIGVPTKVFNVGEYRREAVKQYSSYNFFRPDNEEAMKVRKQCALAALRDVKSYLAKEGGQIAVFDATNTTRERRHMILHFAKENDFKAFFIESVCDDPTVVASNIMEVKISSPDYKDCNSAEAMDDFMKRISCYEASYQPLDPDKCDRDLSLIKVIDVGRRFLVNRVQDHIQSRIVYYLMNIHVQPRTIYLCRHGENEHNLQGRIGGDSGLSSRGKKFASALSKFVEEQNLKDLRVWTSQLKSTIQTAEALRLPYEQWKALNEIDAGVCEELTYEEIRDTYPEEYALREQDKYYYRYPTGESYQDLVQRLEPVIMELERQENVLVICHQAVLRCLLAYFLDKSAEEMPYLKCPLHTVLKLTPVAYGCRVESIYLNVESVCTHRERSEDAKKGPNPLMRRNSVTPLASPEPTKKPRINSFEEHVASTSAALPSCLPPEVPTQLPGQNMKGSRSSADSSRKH

Consider `COc1cccc2c(NCCCCCNC(=O)C(F)(F)F)ccnc12` [Formula (VIII), 2,2,2-trifluoro-N-(5-((8-methoxyquinolin-4-yl)amino)pentyl)acetamide], for which the “production of ATP” value in the series on cancer cells is “dose-dependent decrease”.

Consider `COc1cccc2c(NCCCCCO[N+](=O)[O-])ccnc12` [5MPN, 5-[(8-methoxyquinolin-4-yl)amino]pentyl nitrate], for which the “cell growth of normal cells” value in series [1] is recorded as “virtually unaffected”. Also, the cell cycle distribution result with H460 cells [2] (H460, 10 μM 5MPN) was “G1 arrest”; with LLC cells it was “G1 arrest”. For the same compound, the “effect of overexpression of PFKFB4 on G1 arrest” value with H460 cells [2] (H460 transfected with PFKFB4, 10 μM 5MPN, 24 hours) was “reversed”. In addition, the “intratumoral F2,6BP” value in the series on LLC xenografts is “reduction”. In addition, the “inhibition of kinase activity” value with PFK-1 and against PFKFB3 was “did not inhibit” throughout. Moreover, the apoptotic cells entry in the series on H460 cells [3] was “increase in apoptotic cells”. For the same compound, the tumor growth result in series [4] (5MPN 120 mg/kg oral daily) is listed as “suppressed the growth”. Moreover, the body weight result in [4] (H460-bearing athymic mice, 120 mg/kg oral daily) is “without affecting body weight”.
